This note sets out measurements from US20090288611A1, “Formula and method for treating water in fish tanks” (priority 2008, published 2009).

Molecules are shown by their SMILES.

For the data set, the system named is captive live fish. The experiment in a line: Holding captive live fish in water treated with isoeugenol. The format is in vivo. From the text: The first key ingredient of the chemical mixture for treating the water in fish tanks of the present invention is isoeugenol (2-Methoxy-4-propenylphenol; 4-hydroxy-3-methoxy-1-propenylbenzene; 4-propenylguaiacol) C10H1202. Isoeugenol is an essential oil derived from oil of clove that has anesthetizing capabilities for fish in water. In the preferred embodiment, the formula for maintaining the life of fish contains about 43 ppm±10% of isoeugenol to slow the metabolism of captive live fish.
The benefits of treating the water in which fish are held or transported with isoeugenol are threefold. First, the metabolism of the fish is slowed and therefore the fish require less oxygen. The result is that more live fish may be held in smaller volumes of water. Also, live fish with a slower metabolism are easier to handle and fewer injuries are sustained by the fish.

Where [1] appears, read: overdoses up to 10 times the preferred amount of isoeugenol.

For the molecule `CC=Cc1ccc(O)c(OC)c1` [isoeugenol, 2-Methoxy-4-propenylphenol], the “effect on fish activity (sedation)” value (dosage rate of about 43 ppm±10% isoeugenol in the water) is “slow down fish activity sufficiently to allow handling of the live fish”. For the same molecule, the “coagulation of hook wounds” value (fish held in water treated with isoeugenol, metabolism calmed) is listed as “hook wounds appear to coagulate faster”. Under setting [1], the “fish behaviour at overdose (equilibrium)” value was “some fish may still roll over and lose equilibrium”; the “harm to fish at overdose” value is listed as “not harmful to the fish”.
